Assay results published in PMC2855520, “Anti-infective activity of apolipoprotein domain derived peptides in vitro: identification of novel antimicrobial peptides related to apolipoprotein B with anti-HIV activity” (BMC Immunology, 2010).
Read-outs that look alike come from different tables or passages of the source. No end group written: not given here.

What was measured:
HSV1 [1] = test system: HSV1
[2] = test system: Pseudomonas aeruginosa (ATCC 9027)
Method: (§1) A microdilution method was used [8]: paired dilutions of compounds in LB broth, arranged in 96-well plates were inoculated with around 1 × 10^5 CFU Pseudomonas aeruginosa (ATCC 9027) or Staphylococcus aureus (ATCC 6538P). After overnight incubation at 37C, absorbance at 620 nm (A620) was assessed, and the IC50 concentrations determined.

[3] = test system: Staphylococcus aureus (ATCC 6538P)
Method: as §1

human red blood cells [4] = test system: human red blood cells; parameters: method as in PMID 17681018; conditions: cited from earlier work
TZMbl cells = format: cell-based
Method: Cytotoxicity assessment - Vero cells growing in 96-well plates were treated with various peptide concentrations. After 48 h incubation, 25 μl 3-(4,5-dimethylthiazol-2-yl)-2,5-diphenyltetrazolium bromide (MTT) in 0.5% medium was added (1 mg/ml final concentration), and cells incubated for 2 h. Growth medium was then carefully removed and formazan crystals solubilised in […] of DMSO, prior to reading absorbance at 570 nm (A570). TZMbl cytotoxicity was assessed using the WST-1 cell proliferation reagent (Roche). Experiments were performed as for the anti-infectivity assay, WST-1 was diluted 1/10 into each well at various time points and cell proliferation was measured by absorbance at 450 nm.

human red blood cells [5] = format: cell-based
Method: Freshly washed human red blood cells were added to peptides diluted in PBS in 96-well plates (20 × 10^6 red blood cells were added per well). After 2 h incubation at 37°C, plates were centrifuged (3000 g, 5 min) and 80 μl of supernatant transferred to further 96-well plates containing 0.75% ammonium hydroxide in distilled water.

HSV1 [6] = conditions: earlier reports, organism not specified at this place; ref [9]; cited from earlier work
From the text: In the second group of peptides, apoEdp - used as a positive control - was active against all three organisms, as found in our previous studies.

[7] = read-out: IC50 Concentration (μM) P. aeruginosa, turbidity (A620) of serial dilutions in LB broth, ~1 × 10^5 CFU, overnight 37C, averages for several experiments
[8] = read-out: IC50 Concentration (μM) S. aureus, turbidity (A620) of serial dilutions in LB broth, ~1 × 10^5 CFU, overnight 37C, averages for several experiments
[9] = read-out: IC50 Concentration (μM) HSV1, plaque reduction assay, Vero cells, 90 PFU/well, peptide present 1 h, plaques counted after 2 d, averages for several experiments

| Substance | IC50 (HSV1 [1]; 1 h) [µM] | IC50 [2, 7] [µM] | IC50 [3, 8] [µM] | IC50 (HSV1 [1]; [9]) [µM] | further results |
| --- | --- | --- | --- | --- | --- |
| GERLRARMEGERLRARME [apoE(211-219)dp] | > 40 | > 54 | > 54 | – | – |
| LQVAERLTRKYNELLKSYQ [apoJ311-329] | – | > 54 | > 54 | > 40 | – |
| NFHAMFQPFLEMIHEAQQ [apoJ219-236] | – | > 54 | > 54 | > 40 | – |
| PYLDDFQKKWQEEMELYRQKVE [apoA1-H4] | – | > 54 | > 54 | > 40 | – |
| RLRARMEEMRLRARMEEM [apoE(213-221)dp] | > 40 | > 54 | > 54 | – | – |
| RLTRKRGLKRLTRKRGLK [apoB(3359-3367)dp] | > 40 | > 54 | > 54 | – | – |
| DWLKAFYDKVAEKLKEAF [apoA1-18A, reference compound] | – | – | – | – | IC50 (HSV1 [1]; read-out: IC50 concentration against HSV1, plaque reduction assay, 95%CI 31.9 - 41.1 μM): 36.5 µM |
| VTDYGKDLMEKVKEWLNS [apoAII 18-30+] | – | > 54 | > 54 | > 40 | – |
| LRKLRKRLLLRKLRKRLL-NH2 [apoE(141-149)dp, reference compound] | 16.5 | – | – | – | IC50 ([2]; ATCC 9027): 2.5 µM; IC50 ([3]; ATCC 6538): 9 µM; haemolytic activity (human red blood cells [4]): non-haemolytic |
| VTDYGKDLMEKVKSPELQ [apoAII 18-35] | – | > 54 | > 54 | > 40 | – |
| WRWRKRWRKWRWRKRWRK [apoBdpL/R-W] | – | – | – | – | toxicity against TZMbl cells (TZMbl cells): no detectable toxicity; haemolytic activity (human red blood cells [5]): non-haemolytic |
| KFMETVAEKALQEYRK [apoJ409-424] | – | > 54 | > 54 | > 40 | – |
| PVLDEFREKLNEELEALKQKMK [apoA1-consensus] | – | > 54 | > 54 | > 40 | – |
| ARLAEYHAKATEHLSTLSEKAK [apoA1-H8] | – | > 54 | > 54 | > 40 | – |
| PLGEEMRDRARAHVDALRTHLA [apoA1-H6] | – | > 54 | > 54 | > 40 | – |
| apoE(141-149): nonomer peptide of the apoE receptor binding region (LRKLRKRLL; UniProt P02649 159-167, looked up, fragment) | – | – | – | – | anti-infective activity (in words) (HSV1 [6]): inactive |
| PYSDELRQRLAARLEALKENGG [apoA1-H7] | – | > 54 | > 54 | > 40 | – |
| RDADDLQKRRDADDLQKR [apoE(150-158)dp] | > 40 | > 54 | > 54 | – | – |
| RALVDTLKFVTQAEGAK [apoB1000-1016] | – | > 54 | > 54 | > 40 | antiviral activity against HSV1 (in words) (HSV1 [1]; plaque reduction assay in Vero cells): inactive |
| LRKLRKRLLRDADDLQKRLA [apoE141-162] | > 40 | > 54 | > 54 | – | – |
| CKNKEKKCCKNKEKKC [apoH(281-288)dp] | – | > 54 | > 54 | > 40 | – |
| HMLDVMQDHFSRASSIIDEL [apoJ151-170] | > 40 | > 54 | > 54 | – | – |
